Experimental data from ChEMBL document CHEMBL3638579, “Arylamino purine derivatives, preparation method and pharmaceutical use thereof” (2015).

Target: Vascular endothelial growth factor receptor 2 (Homo sapiens, UniProt P35968)
Test: Inhibition Assay: The object of this assay was to test the inventive compounds for the kinase inhibitory activity in vitro. In this assay, an isotopic labeling method was used to label the gamma phosphate group on ATP. EGFR (including wild type, L858R mutant type and L858R/T790M double mutant type), VEGFR2, ALK, BTK, c-KIT, c-SRC, MET, PDGFRalpha and FLT3 kinases were tested in vitro for the activity inhibition. Staurosporine was used as a reference molecule (or referred to as a positive control). […] The IC50 value can be obtained by the calculation of the inhibitory rates at a series of different concentrations of the tested compounds. 1. Materials: 20mM 3-(N-morpholinyl)propylsulfonic acid (MOPS); 1mM Ethylenediaminetetraacetic acid (EDTA); 0.01% Polyethylene glycol lauryl ether (Brij-35).

Chain of Vascular endothelial growth factor receptor 2 (P35968 20-1356 limits assumed, stated change not applied): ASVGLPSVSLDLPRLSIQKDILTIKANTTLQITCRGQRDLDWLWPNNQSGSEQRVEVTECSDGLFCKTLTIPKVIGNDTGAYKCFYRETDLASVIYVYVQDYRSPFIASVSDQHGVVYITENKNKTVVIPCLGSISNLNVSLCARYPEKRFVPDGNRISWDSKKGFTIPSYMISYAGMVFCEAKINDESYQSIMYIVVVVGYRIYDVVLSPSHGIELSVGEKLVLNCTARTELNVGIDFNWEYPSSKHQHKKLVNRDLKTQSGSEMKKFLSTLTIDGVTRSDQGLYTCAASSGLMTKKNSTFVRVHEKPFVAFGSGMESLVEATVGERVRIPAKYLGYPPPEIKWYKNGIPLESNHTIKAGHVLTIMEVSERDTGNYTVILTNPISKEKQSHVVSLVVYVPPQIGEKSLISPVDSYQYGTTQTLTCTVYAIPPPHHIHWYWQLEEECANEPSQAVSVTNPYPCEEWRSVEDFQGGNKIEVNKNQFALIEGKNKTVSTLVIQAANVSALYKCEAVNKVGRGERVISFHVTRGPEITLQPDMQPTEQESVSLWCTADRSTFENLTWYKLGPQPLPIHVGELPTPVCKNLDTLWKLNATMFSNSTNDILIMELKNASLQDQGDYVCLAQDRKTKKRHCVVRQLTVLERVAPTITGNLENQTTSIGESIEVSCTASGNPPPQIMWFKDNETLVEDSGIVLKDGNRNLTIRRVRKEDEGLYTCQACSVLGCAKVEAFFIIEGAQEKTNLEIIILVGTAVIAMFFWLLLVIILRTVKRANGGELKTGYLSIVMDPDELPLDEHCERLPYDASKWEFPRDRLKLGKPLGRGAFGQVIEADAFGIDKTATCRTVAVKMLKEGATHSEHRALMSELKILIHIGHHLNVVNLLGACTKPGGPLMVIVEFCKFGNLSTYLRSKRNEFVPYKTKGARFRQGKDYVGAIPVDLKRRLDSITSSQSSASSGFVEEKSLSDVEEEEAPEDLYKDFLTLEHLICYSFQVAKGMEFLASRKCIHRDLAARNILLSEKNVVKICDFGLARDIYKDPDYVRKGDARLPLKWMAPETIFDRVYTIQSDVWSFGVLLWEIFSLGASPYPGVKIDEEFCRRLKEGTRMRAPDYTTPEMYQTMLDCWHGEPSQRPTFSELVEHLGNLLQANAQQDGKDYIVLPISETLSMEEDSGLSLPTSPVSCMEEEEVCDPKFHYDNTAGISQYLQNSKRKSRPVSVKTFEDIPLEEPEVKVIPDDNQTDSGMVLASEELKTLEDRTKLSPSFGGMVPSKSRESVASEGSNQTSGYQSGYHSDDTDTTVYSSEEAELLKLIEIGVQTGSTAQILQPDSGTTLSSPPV

IC50: > 1 µM
SMILES: CC(C)n1c(Nc2ccccc2)nc2cnc(Nc3ccc(C(=O)NN4CCN(C)CC4)cc3F)nc21
